From patent US6737383B1, “Herbicidal oxadiazolidines” (priority 1999, dated 2004)

Experiments:
velvetleaf = test: Test B pre/postemergence velvetleaf; type: in vivo, Abutilon theophrasti
Method in brief: (§1)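 Herbicidal effect was estimated by eye on a ten-point control scale after plants spent twelve to sixteen days in a greenhouse following soil or foliar treatment. Foliar sprays targeted plants at one to four leaves; all doses were formulated in a non-phytotoxic solvent with surfactant.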

wild oat = test: Test B pre/postemergence wild oat; type: in vivo, Avena fatua
Method in brief: as §1

sugar beet = test: Test B pre/postemergence sugar beet; type: in vivo, Beta vulgaris
Method in brief: as §1

blackgrass = test: Test B pre/postemergence blackgrass; type: in vivo, Alopecurus myosuroides
Method in brief: as §1

giant foxtail = test: Test B pre/postemergence giant foxtail; type: in vivo, Setaria faberii
Method in brief: as §1

morningglory = test: Test B pre/postemergence morningglory; type: in vivo, Ipomoea hederacea
Method in brief: as §1

wheat = test: Test B pre/postemergence wheat; type: in vivo, Triticum aestivum
Method in brief: as §1

corn = test: Test B pre/postemergence corn; type: in vivo, Zea mays
Method in brief: as §1

purple nutsedge = test: Test B pre/postemergence purple nutsedge; type: in vivo, Cyperus rotundus
Method in brief: as §1

soybean = test: Test B pre/postemergence soybean; type: in vivo, Glycine max
Method in brief: as §1

rape = test: Test B pre/postemergence rape; type: in vivo, Brassica napus
Method in brief: as §1

crabgrass = test: Test B pre/postemergence crabgrass; type: in vivo, Digitaria sanguinalis
Method in brief: as §1

pigweed = test: Test B pre/postemergence pigweed; type: in vivo, Amaranthus retroflexus
Method in brief: as §1

bedstraw = test: Test B pre/postemergence bedstraw; type: in vivo, Galium aparine
Method in brief: as §1

cocklebur = test: Test B pre/postemergence cocklebur; type: in vivo, Xanthium strumarium
Method in brief: as §1

surinam grass = test: Test B pre/postemergence surinam grass; type: in vivo, Brachiaria decumbens
Method in brief: as §1

[1] = Postemergence, Rate 62 g/ha, scale 0 to 10, 0 is no effect, 10 is complete control
[2] = Postemergence, Rate 500 g/ha, scale 0 (no effect) to 10 (complete control)
[3] = Rate 62 g/ha, Preemergence, scale 0 to 10
[4] = Rate 125 g/ha, Preemergence, scale 0 to 10 (0 no effect, 10 complete control)
[5] = Rate 250 g/ha, Postemergence, scale 0 to 10, 0 is no effect, 10 is complete control
[6] = Rate 500 g/ha, Preemergence, scale 0 to 10 (0 no effect, 10 complete control)
[7] = Postemergence, Rate 125 g/ha, scale of 0 to 10 where 0 is no effect and 10 is complete control
[8] = Preemergence, Rate 250 g/ha, scale 0 (no effect) to 10 (complete control)
[9] = Rate 62 g/ha, Preemergence, scale 0 (no effect) to 10 (complete control)
[10] = Rate 500 g/ha, Postemergence, scale 0 to 10, 0 is no effect, 10 is complete control

CCOC(CC)n1c(=O)on(C(=O)N(c2ccccc2)C(C)C)c1=O (stereo not shown) [Compound 773]
Plant response rating, Velvetleaf (velvetleaf; [1]): 0 | Velvetleaf plant response rating (velvetleaf; [2]): 0 | Velvetleaf plant response rating (velvetleaf; [3]): 0 | Velvetleaf plant response rating (velvetleaf; [4]): 0 | Velvetleaf plant response rating (velvetleaf; [5]): 0 | Velvetleaf plant response rating (velvetleaf; [6]): 0 | Plant response rating, Wild oats (wild oat; [1]): 0 | Wild oats plant response rating (wild oat; [2]): 0 | Wild oats plant response rating (wild oat; [3]): 0 | Wild oats plant response rating (wild oat; [4]): 0 | Wild oats plant response rating (wild oat; [5]): 0 | Wild oats plant response rating (wild oat; [6]): 0 | Plant response rating, Sugarbeets (sugar beet; [1]): 0 | Sugarbeets plant response rating (sugar beet; [2]): 0 | Sugarbeets plant response rating (sugar beet; [3]): 0 | Sugarbeets plant response rating (sugar beet; [4]): 0 | Sugarbeets plant response rating (sugar beet; [5]): 0 | Sugarbeets plant response rating (sugar beet; [6]): 0 | Plant response rating, Blackgrass (blackgrass; [1]): 0 | Blackgrass plant response rating (blackgrass; [7]): 0 | Blackgrass plant response rating (blackgrass; [2]): 0 | Blackgrass plant response rating (blackgrass; [8]): 0 | Blackgrass plant response rating (blackgrass; [3]): 0 | Blackgrass plant response rating (blackgrass; [4]): 0 | Blackgrass plant response rating (blackgrass; [5]): 0 | Blackgrass plant response rating (blackgrass; [6]): 0 | Plant response rating, Giant foxtail (giant foxtail; [1]): 0 | Giant foxtail plant response rating (giant foxtail; [7]): 0 | Giant foxtail plant response rating (giant foxtail; [2]): 0 | Giant foxtail plant response rating (giant foxtail; [8]): 0 | Giant foxtail plant response rating (giant foxtail; [3]): 0 | Giant foxtail plant response rating (giant foxtail; [4]): 0 | Giant foxtail plant response rating (giant foxtail; [5]): 0 | Giant foxtail plant response rating (giant foxtail; [6]): 0 | Plant response rating, Morningglory (morningglory; [1]): 0 | Morningglory plant response rating (morningglory; [7]): 0 | Morningglory plant response rating (morningglory; [2]): 0 | Morningglory plant response rating (morningglory; [3]): 0 | Morningglory plant response rating (morningglory; [4]): 0 | Morningglory plant response rating (morningglory; [5]): 0 | Morningglory plant response rating (morningglory; [6]): 0 | Plant response rating, Wheat (wheat; [1]): 0 | Wheat plant response rating (wheat; [2]): 0 | Wheat plant response rating (wheat; [3]): 0 | Wheat plant response rating (wheat; [4]): 0 | Wheat plant response rating (wheat; [5]): 0 | Wheat plant response rating (wheat; [6]): 0 | Plant response rating, Corn (corn; [1]): 0 | Corn plant response rating (corn; [7]): 0 | Corn plant response rating (corn; [2]): 0 | Corn plant response rating (corn; [8]): 0 | Corn plant response rating (corn; [3]): 0 | Corn plant response rating (corn; [4]): 0 | Corn plant response rating (corn; [5]): 0 | Corn plant response rating (corn; [6]): 0 | Plant response rating, Nutsedge (purple nutsedge; [1]): 0 | Nutsedge plant response rating (purple nutsedge; [7]): 0 | Nutsedge plant response rating (purple nutsedge; [2]): 0 | Nutsedge plant response rating (purple nutsedge; [3]): 0 | Nutsedge plant response rating (purple nutsedge; [4]): 0 | Nutsedge plant response rating (purple nutsedge; [5]): 0 | Nutsedge plant response rating (purple nutsedge; [6]): 0 | Plant response rating, Soybean (soybean; [1]): 0 | Soybean plant response rating (soybean; [2]): 0 | Soybean plant response rating (soybean; [3]): 0 | Soybean plant response rating (soybean; [4]): 0 | Soybean plant response rating (soybean; [5]): 0 | Soybean plant response rating (soybean; [6]): 0 | Plant response rating, Rape (rape; [1]): 0 | Rape plant response rating (rape; [7]): 0 | Rape plant response rating (rape; [2]): 0 | Rape plant response rating (rape; [3]): 0 | Rape plant response rating (rape; [4]): 0 | Rape plant response rating (rape; [5]): 0 | Rape plant response rating (rape; [6]): 0 | Plant response rating, Crabgrass (crabgrass; [1]): 0 | Crabgrass plant response rating (crabgrass; [7]): 0 | Crabgrass plant response rating (crabgrass; [2]): 0 | Crabgrass plant response rating (crabgrass; [8]): 0 | Crabgrass plant response rating (crabgrass; [3]): 0 | Crabgrass plant response rating (crabgrass; [4]): 0 | Crabgrass plant response rating (crabgrass; [5]): 0 | Crabgrass plant response rating (crabgrass; [6]): 0 | Plant response rating, Redroot pigweed (pigweed; [1]): 0 | Redroot pigweed plant response rating (pigweed; [7]): 0 | Redroot pigweed plant response rating (pigweed; [2]): 0 | Redroot pigweed plant response rating (pigweed; [3]): 0 | Redroot pigweed plant response rating (pigweed; [4]): 0 | Redroot pigweed plant response rating (pigweed; [5]): 0 | Redroot pigweed plant response rating (pigweed; [6]): 0 | Plant response rating, Bedstraw (bedstraw; [1]): 0 | Bedstraw plant response rating (bedstraw; [7]): 0 | Bedstraw plant response rating (bedstraw; [2]): 0 | Bedstraw plant response rating (bedstraw; [8]): 0 | Bedstraw plant response rating (bedstraw; [3]): 0 | Bedstraw plant response rating (bedstraw; [4]): 0 | Bedstraw plant response rating (bedstraw; [5]): 0 | Bedstraw plant response rating (bedstraw; [6]): 0 | Plant response rating, Cocklebur (cocklebur; [1]): 0 | Cocklebur plant response rating (cocklebur; [7]): 0 | Cocklebur plant response rating (cocklebur; [2]): 0 | Cocklebur plant response rating (cocklebur; [8]): 0 | Cocklebur plant response rating (cocklebur; [3]): 0 | Cocklebur plant response rating (cocklebur; [4]): 0 | Cocklebur plant response rating (cocklebur; [5]): 0 | Cocklebur plant response rating (cocklebur; [6]): 0 | Plant response rating, B. signalgrass (surinam grass; [1]): 0 | B. signalgrass plant response rating (surinam grass; [7]): 0 | B. signalgrass plant response rating (surinam grass; [8]): 0 | B. signalgrass plant response rating (surinam grass; [9]): 0 | B. signalgrass plant response rating (surinam grass; [4]): 0 | B. signalgrass plant response rating (surinam grass; [5]): 0 | B. signalgrass plant response rating (surinam grass; [10]): 0 | B. signalgrass plant response rating (surinam grass; [6]): 0

CC(C)N(C(=O)n1oc(=O)n(CCCCCl)c1=O)c1ccc(Cl)cc1 [Compound 791]
Plant response rating, Velvetleaf (velvetleaf; [1]): 2 | Velvetleaf plant response rating (velvetleaf; [2]): 6 | Velvetleaf plant response rating (velvetleaf; [3]): 0 | Velvetleaf plant response rating (velvetleaf; [4]): 0 | Velvetleaf plant response rating (velvetleaf; [5]): 6 | Velvetleaf plant response rating (velvetleaf; [6]): 0 | Plant response rating, Wild oats (wild oat; [1]): 0 | Wild oats plant response rating (wild oat; [2]): 0 | Wild oats plant response rating (wild oat; [3]): 0 | Wild oats plant response rating (wild oat; [4]): 0 | Wild oats plant response rating (wild oat; [5]): 0 | Plant response rating, Sugarbeets (sugar beet; [1]): 0 | Sugarbeets plant response rating (sugar beet; [2]): 5 | Sugarbeets plant response rating (sugar beet; [3]): 0 | Sugarbeets plant response rating (sugar beet; [4]): 0 | Sugarbeets plant response rating (sugar beet; [5]): 2 | Plant response rating, Blackgrass (blackgrass; [1]): 0 | Blackgrass plant response rating (blackgrass; [7]): 2 | Blackgrass plant response rating (blackgrass; [2]): 6 | Blackgrass plant response rating (blackgrass; [8]): 7 | Blackgrass plant response rating (blackgrass; [3]): 0 | Blackgrass plant response rating (blackgrass; [4]): 0 | Blackgrass plant response rating (blackgrass; [5]): 5 | Plant response rating, Giant foxtail (giant foxtail; [1]): 0 | Giant foxtail plant response rating (giant foxtail; [7]): 2 | Giant foxtail plant response rating (giant foxtail; [2]): 9 | Giant foxtail plant response rating (giant foxtail; [8]): 10 | Giant foxtail plant response rating (giant foxtail; [3]): 10 | Giant foxtail plant response rating (giant foxtail; [4]): 10 | Giant foxtail plant response rating (giant foxtail; [5]): 8 | Giant foxtail plant response rating (giant foxtail; [6]): 10 | Plant response rating, Morningglory (morningglory; [1]): 3 | Morningglory plant response rating (morningglory; [7]): 3 | Morningglory plant response rating (morningglory; [2]): 9 | Morningglory plant response rating (morningglory; [3]): 0 | Morningglory plant response rating (morningglory; [4]): 0 | Morningglory plant response rating (morningglory; [5]): 9 | Morningglory plant response rating (morningglory; [6]): 0 | Plant response rating, Wheat (wheat; [1]): 0 | Wheat plant response rating (wheat; [2]): 0 | Wheat plant response rating (wheat; [3]): 0 | Wheat plant response rating (wheat; [4]): 0 | Wheat plant response rating (wheat; [5]): 0 | Plant response rating, Corn (corn; [1]): 0 | Corn plant response rating (corn; [7]): 0 | Corn plant response rating (corn; [2]): 1 | Corn plant response rating (corn; [8]): 0 | Corn plant response rating (corn; [3]): 0 | Corn plant response rating (corn; [4]): 0 | Corn plant response rating (corn; [5]): 1 | Corn plant response rating (corn; [6]): 0 | Plant response rating, Nutsedge (purple nutsedge; [1]): 0 | Nutsedge plant response rating (purple nutsedge; [7]): 0 | Nutsedge plant response rating (purple nutsedge; [2]): 0 | Nutsedge plant response rating (purple nutsedge; [3]): 0 | Nutsedge plant response rating (purple nutsedge; [4]): 0 | Nutsedge plant response rating (purple nutsedge; [5]): 0 | Nutsedge plant response rating (purple nutsedge; [6]): 0 | Plant response rating, Soybean (soybean; [1]): 4 | Soybean plant response rating (soybean; [2]): 5 | Soybean plant response rating (soybean; [3]): 4 | Soybean plant response rating (soybean; [4]): 4 | Soybean plant response rating (soybean; [5]): 5 | Soybean plant response rating (soybean; [6]): 5 | Plant response rating, Rape (rape; [1]): 3 | Rape plant response rating (rape; [7]): 3 | Rape plant response rating (rape; [2]): 6 | Rape plant response rating (rape; [3]): 0 | Rape plant response rating (rape; [4]): 0 | Rape plant response rating (rape; [5]): 5 | Plant response rating, Crabgrass (crabgrass; [1]): 1 | Crabgrass plant response rating (crabgrass; [7]): 4 | Crabgrass plant response rating (crabgrass; [2]): 9 | Crabgrass plant response rating (crabgrass; [8]): 10 | Crabgrass plant response rating (crabgrass; [3]): 6 | Crabgrass plant response rating (crabgrass; [4]): 6 | Crabgrass plant response rating (crabgrass; [5]): 9 | Crabgrass plant response rating (crabgrass; [6]): 10 | Plant response rating, Redroot pigweed (pigweed; [1]): 2 | Redroot pigweed plant response rating (pigweed; [7]): 6 | Redroot pigweed plant response rating (pigweed; [2]): 8 | Redroot pigweed plant response rating (pigweed; [3]): 0 | Redroot pigweed plant response rating (pigweed; [4]): 0 | Redroot pigweed plant response rating (pigweed; [5]): 6 | Plant response rating, Bedstraw (bedstraw; [1]): 0 | Bedstraw plant response rating (bedstraw; [2]): 3 | Bedstraw plant response rating (bedstraw; [4]): 0 | Bedstraw plant response rating (bedstraw; [5]): 3 | Plant response rating, Cocklebur (cocklebur; [1]): 0 | Cocklebur plant response rating (cocklebur; [7]): 0 | Cocklebur plant response rating (cocklebur; [2]): 5 | Cocklebur plant response rating (cocklebur; [8]): 0 | Cocklebur plant response rating (cocklebur; [3]): 0 | Cocklebur plant response rating (cocklebur; [4]): 0 | Cocklebur plant response rating (cocklebur; [5]): 0 | Cocklebur plant response rating (cocklebur; [6]): 0 | Plant response rating, B. signalgrass (surinam grass; [1]): 0 | B. signalgrass plant response rating (surinam grass; [7]): 0 | B. signalgrass plant response rating (surinam grass; [8]): 0 | B. signalgrass plant response rating (surinam grass; [9]): 0 | B. signalgrass plant response rating (surinam grass; [4]): 0 | B. signalgrass plant response rating (surinam grass; [5]): 0 | B. signalgrass plant response rating (surinam grass; [10]): 0
